Data on seven compounds can be found in ChEMBL document CHEMBL1135279, “Design and synthesis of lignostilbene-alpha,beta-dioxygenase inhibitors” (Bioorg Med Chem Lett, 2002).

Assay [1] addresses T1, Lignostilbene alpha, beta-dioxygenase (Sphingomonas paucimobilis, UniProt O87171).
T1 sequence (O87171 whole entry): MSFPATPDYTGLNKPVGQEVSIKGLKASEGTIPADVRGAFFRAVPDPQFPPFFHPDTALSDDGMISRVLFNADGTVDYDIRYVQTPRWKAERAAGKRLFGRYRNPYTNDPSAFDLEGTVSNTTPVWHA
Description: Inhibitory concentration against Lignostilbene-alpha, beta-dioxygenase (LSD) was determined in 2 mL of 50 mM […] buffer containing 4 microg enzyme/mL at 30 degree C.

The target in assay [2] is T1, Lignostilbene alpha, beta-dioxygenase. Description: Inhibitory concentration against Lignostilbene alpha beta-dioxygenase (LSD) was determined in 2 mL of 50 mM […] buffer containing 4 microg enzyme/mL at 30 degree C.
Assay [3] has the same target. The experiment in a line: Tested for the inhibition of Lignostilbene-alpha, beta-dioxygenase (LSD).

The structures appear in SMILES notation.

Take `C=C(C)c1ccc(O)cc1`: 12 µM corresponded to half-maximal inhibition in assay [1] (IC50).

`C/C(=C\c1ccccc1)c1ccccc1` registered a half-maximal inhibitory concentration (IC50) in assay [1] of more than 100 µM. In the case of `C/C(=C/c1ccc(O)cc1)c1ccccc1`, in assay [2], half-maximal inhibition (IC50) required 7 µM. `C/C(=C\c1ccc(O)cc1)c1ccccc1` displayed an IC50 in assay [1] of 15 µM. For the compound `F/C(=C\c1ccccc1)c1ccccc1`, in assay [1], the IC50 was more than 100 µM.

In assay [2], `C/C(=C/c1ccccc1)c1ccccc1` yielded an IC50 of 22 µM.

Turning to `Oc1ccc(/C(F)=C/c2ccccc2)cc1`, in assay [1], the concentration for half-maximal inhibition (IC50) stood at 3 µM. Moreover, the inhibitory constant (Ki) in assay [3] came to 0.98 µM.

As a reminder, the IC50 is the point on the concentration scale where inhibition reaches its midpoint. Lower therefore signals inhibition by little substance. One may read the Ki as a measure of affinity in units of concentration, obtained from inhibition or displacement. Read a low Ki as higher affinity.
